Measured values taken from ChEMBL document CHEMBL1275254 (2010).
Converted amounts (≈) assume the structure as drawn.

Test system: Burkholderia pseudomallei
Assay: Antimicrobial activity against Burkholderia pseudomallei 1026b after 24 hrs by broth microdilution method
Type: functional

Row | Compound | MIC
1 | O=C(N[C@H](CO)[C@H](O)c1ccc([N+](=O)[O-])cc1)C(Cl)Cl [CHLORAMPHENICOL] | 8 µg/mL (≈ 24.8 µM)
2 | CC[C@H]1OC(=O)[C@H](C)[C@@H](O[C@H]2C[C@@](C)(OC)[C@@H](O)[C@H](C)O2)[C@H](C)[C@@H](O[C@@H]2O[C@H](C)C[C@H](N(C)C)[C@H]2O)[C@](C)(OC)C[C@@H](C)C(=O)[C@H](C)[C@@H](O)[C@]1(C)O [CLARITHROMYCIN] | 128 µg/mL (≈ 171 µM)
3 | CCC[C@@H]1C[C@@H](C(=O)N[C@@H]([C@H]2O[C@H](SC)[C@H](O)[C@@H](O)[C@H]2O)[C@H](C)Cl)N(C)C1 [CLINDAMYCIN] | > 4100 µg/mL
4 | NC[C@H]1O[C@H](O[C@H]2[C@H](O)[C@@H](O[C@H]3O[C@H](CO)[C@@H](O)[C@H](N)[C@H]3O)[C@H](N)C[C@@H]2N)[C@H](O)[C@@H](O)[C@@H]1O [KANAMYCIN] | 64 µg/mL (≈ 132 µM)
5 | CC1COc2c(N3CCN(C)CC3)c(F)cc3c(=O)c(C(=O)O)cn1c23 (stereo not drawn) [OFLOXACIN] | 2 µg/mL (≈ 5.53 µM)
6 | CN[C@@H]1[C@H](O)[C@H](NC)[C@H]2O[C@@]3(O)C(=O)C[C@@H](C)O[C@H]3O[C@@H]2[C@H]1O [SPECTINOMYCIN] | 2050 µg/mL (≈ 6160 µM)
7 | CN[C@@H]1[C@H](O[C@H]2[C@H](O[C@H]3[C@H](O)[C@@H](O)[C@H](N=C(N)N)[C@@H](O)[C@@H]3N=C(N)N)O[C@@H](C)[C@]2(O)C=O)O[C@@H](CO)[C@H](O)[C@H]1O [STREPTOMYCIN] | > 2050 µg/mL
8 | GENTAMICIN | 512 µg/mL
